Experimental data taken from publication PMC12156185, “Synthesis of Cyclic Hexapeptides via the Hydrazide Method and Evaluation of Their Antibacterial Activities” (Molecules, 2025).
In brackets after ≈: the same amount, converted by molar mass. Where a SMILES comes first, the peptide text is derived from it.

Tests used:
[1] = tested on: Candida tropicalis (BNCC 340288); type: cell-based; settings: BNCC 340288, 24 h
Description: (§1) The antimicrobial and antifungal activities of 11 cyclic hexapeptides (Cy-f1 to Cy-f11) were evaluated by determining their minimum inhibitory concentrations (MICs) against a panel of pathogens (Figure 4). These pathogens included Gram-negative bacteria (Escherichia coli, Klebsiella pneumoniae, Pseudomonas aeruginosa), Gram-positive bacteria (Staphylococcus aureus, Bacillus subtilis, Staphylococcus aureus [MRSA], […]), and fungi (Candida tropicalis, Cryptococcus neoformans).
(§2) The antibacterial activity of peptide analogs was tested against different bacterial strains, all purified cyclotides underwent antibacterial testing against Gram-positive bacterium Staphylococcus aureus (BNCC 186335), Bacillus subtilis (BNCC 109047), and Staphylococcus aureus (MRSA, BNCC 330041), Gram-negative bacteria, including Acinetobacter baumannii (BNCC 337173), Pseudomonas aeruginosa (BNCC 125486), and […]. Fungi included Candida parapsilosis (BNCC 336515) and Candida tropicalis (BNCC 340288). All the above strains are from the Henan Provincial Engineering Research Center of Industrial Microorganisms (Henan, China). Escherichia coli (ATCC 25922) and Klebsiella pneumoniae (CMCC(B) 46117) were sourced from Guangzhou HuanKai Microbial Technology Co., Ltd. (Guangzhou, China). The peptides’ MIC was determined using the Clinical and Laboratory Standards Institute broth dilution procedure with slight modifications.
Candida tropicalis was cultured on Sabourad Dextrose Agar (SDA). A single colony was inoculated in YM broth medium and grown overnight at 37 °C while shaking. Peptides were diluted in SDB media by two-fold dilution, resulting in 100 µL of medium containing increasing concentrations. The overnight culture (turbidity at OD600 = 1) was 1000× diluted in SDB. Then 100 µL of this suspension was added to each well, resulting in a final 200 µL suspension containing 2–4 × 10^5 CFU/mL. The plate was incubated at 37 °C for 24 h.
(§3) Each test was performed at least three times. MIC (minimum inhibitory concentration) values were determined as the concentrations of peptides that caused >99% inhibition of bacterial growth.

[2] = tested on: red blood cells (RBCs); type: cell-based
Description: (§4) Based on the antimicrobial activity screening, a hemolysis assay was conducted to assess the toxicity of Cy-f1, Cy-f2, and Cy-f4 (Figure 5). For Cy-f1, the hemolysis percentage remained consistently low across all tested concentrations. At 8 μM, Cy-f1 induced approximately 0.12% hemolysis. […] For Cy-f2, the hemolysis percentage also remained consistently low across all tested concentrations. At 8 μM, Cy-f2 induced approximately 0.3% hemolysis, and Cy-f2 stayed stable at 0.3% at 16 μM and 32 μM. […] At 8 μM, it induced approximately 0.7% hemolysis, […]. However, hemolysis increased slightly with higher concentrations, reaching approximately […] and 1.1% at 16 μM and 32 μM, respectively. […] In this experiment Triton X-100 was used as a positive control with a hemolysis rate of 100%.
Figure S4. SEM images of RBCs treated with Cy-f1, Cy-f2, and Cy-f4. (A) SEM images of RBCs
treated with Cy-f1. (B) SEM images of RBCs treated with Cy-f2. (C) SEM images of RBCs treated […]

[3] = tested on: Cryptococcus neoformans (BNCC 225501); type: cell-based; settings: BNCC 225501, 48 h
Description: as §1, §2, §3

[4] = tested on: Escherichia coli (ATCC 25922); type: cell-based
Description: as §1, §2
(§5) Colonies of these bacterial strains were grown in respective agar media, then inoculated in Mueller Hinton (MH) broth and incubated at 37 °C overnight. The peptide solutions were first diluted 1 in 100 (from the stock solution at 20 mM) and then further two-fold dilution in MH broth in a sterile 96-well plate was performed, resulting in 100 µL of broth containing increasing concentrations. Bacteria in their exponential growth phase were diluted in MH broth, and 100 µL of this suspension was added in each well. […] Then, these plates were incubated at 37 °C for 20–22 h.
as §3

[5] = tested on: Bacillus subtilis (BNCC 109047); type: cell-based
Description: as §1, §2, §5, §3

[6] = tested on: Pseudomonas aeruginosa (BNCC 125486); type: cell-based
Description: as §1, §2, §5, §3

[7] = tested on: Staphylococcus aureus (MRSA, BNCC 330041); type: cell-based
Description: as §1, §2, §5, §3

[8] = tested on: Klebsiella pneumoniae (CMCC(B) 46117); type: cell-based
Description: as §1, §2, §5, §3

[9] = tested on: Staphylococcus aureus (BNCC 186335); type: cell-based
Description: as §1, §2, §5, §3

[10] = tested on: Acinetobacter baumannii (BNCC 337173); type: cell-based
Description: as §1, §2, §5, §3

[11] = tested on: Klebsiella pneumoniae; assay: Time-dependent growth kinetics (time-kill); type: cell-based; settings: 37 °C
Description: Bacterial viability, expressed as logarithmic colony-forming units per milliliter (Lg CFU/mL), was monitored over 240 min at 37 °C. Results are presented in Figure 6, X as the mean Lg CFU/mL ± standard deviation (SD) from three independent experiments. […] At 2× MIC, a more pronounced effect was observed, with the Lg CFU/mL decreasing to 4.0, a 3.9 Lg CFU/mL reduction. […] This rapid killing profile supports Cy-f2’s potential as an effective antimicrobial peptide.
Klebsiella pneumoniae was cultured in fresh LB nutrient broth at 37 °C following the protocol described by Huang et al., with modifications. Upon reaching the logarithmic growth phase, the bacterial suspension was adjusted to approximately 10^6 CFU/mL and subsequently treated with cyclized f2 at concentrations corresponding to 1×, 2×, and 4× the minimum inhibitory concentration (MIC). Aliquots were collected at 1, 2, 3, and 4 h post-treatment, serially diluted, and plated onto solid agar medium for 24 h incubation. Colony-forming units (CFUs) were enumerated to assess bacterial viability. All experiments were performed in triplicate. Time-dependent growth kinetics were analyzed by plotting bacterial survival (log10 CFU/mL) against time (h) using GraphPad Prism9.5, enabling statistical evaluation of the bactericidal and bacteriostatic effects of the cyclic hexapeptide.

[12] = tested on: Klebsiella pneumoniae; assay: Scanning electron microscopy of treated cells; type: cell-based; settings: 4 MIC (64 μM for Cy-f2, 128 μM for Cy-f4), 1 h, 37 °C, 5000× magnification; cefoperazone sodium as positive control
Description: (§6) To investigate the morphological effects of the cyclic peptides Cy-f2 and Cy-f4 on Klebsiella pneumoniae and Candida tropicalis, scanning electron microscopy (SEM) was performed (Figure 7). […] Untreated cells served as controls. Samples were fixed, dehydrated, and coated with gold for SEM imaging at 5000× magnification. Effects on Klebsiella pneumoniae (Panel A). […] The bactericidal efficacy of Cy-f2 and Cy-f4 against Klebsiella pneumoniae was verified through comparative evaluation of the treatment group and the positive control group. Effects on Candida tropicalis (Panel B) untreated C. tropicalis cells in the control group appeared as smooth, spherical to oval-shaped yeast cells with intact cell walls.
(§7) According to the method of He with adjustments, bacteria were grown to the logarithmic phase and then washed and resuspended in sterile PBS to an OD600 of 0.4. They were incubated with an equal volume of AMPs at 4× MIC for 1 h. After incubation, the bacterial pellets were washed three times with PBS and centrifuged at 3500 rpm for 4 min. The pellets were then fixed overnight in 2.5% (w/v) glutaraldehyde. The bacterial samples were dehydrated using a series of ethanol solutions with increasing concentrations (30%, 50%, 70%, 90%, and 100%). After dehydration, the samples were dried and sputter-coated with gold. Bacterial fragmentation was observed using scanning electron microscopy (HITACHI SU5000, Tokyo, Japan). Untreated bacterial suspensions served as the negative control.

[13] = tested on: Candida tropicalis; assay: Scanning electron microscopy of treated cells; type: cell-based; settings: 4 MIC (32 μM for Cy-f2, 128 μM for Cy-f4), 1 h, 30 °C, 5000× magnification; clotrimazole as positive control
Description: as §6, §7

[14] = tested on: red blood cells; type: cell-based, mouse
Description: as §4
For the hemolytic assay, 2 mL of fresh blood was collected from a healthy mouse into an EDTA-coated tube. All procedures regarding the care and use of laboratory animals adhered to the guidelines established by the Guangxi University Ethics Committee (Approval No.: GXU-2024-063). According to the method of Tan with necessary adjustments. The blood was centrifuged and upper supernatant plasma was removed. […] After centrifugation, 200 µL of supernatant were transferred into a 96-well plate and the absorbance was recorded at 576 nm using a microplate reader. […]

Row | Molecule | MIC against C. tropicalis [1] [µM] | Morphology of red blood cells by SEM [2] | MIC against C. neoformans [3] [µM] | MIC against E. coli [4] [µM] | MIC against B. subtilis [5] [µM] | MIC against P. aeruginosa [6] [µM] | MIC against MRSA [7] [µM] | MIC against K. pneumoniae [8] [µM] | MIC against S. aureus [9] [µM] | MIC against A. baumannii [10] [µM] | Reduction of bacterial viability after 240 min ([11]; 1× MIC (16 μM)) [Lg CFU/mL] | Bacterial viability after 240 min ([11]; 1× MIC (16 μM), start 6.55 Lg CFU/mL, mean of three independent experiments) [Lg CFU/mL] | Reduction of bacterial viability after 240 min ([11]; 2× MIC (32 μM)) [Lg CFU/mL] | Bacterial viability after 240 min ([11]; 2× MIC (32 μM), mean of three independent experiments) [Lg CFU/mL] | Bacterial viability within 240 min ([11]; 4× MIC (64 μM), mean of three independent experiments) | Cell morphology of K. pneumoniae by SEM [12] | Cell morphology of C. tropicalis by SEM [13] | Hemolysis rate (positive control) [14] [%]
1 | CC[C@H](C)[C@@H]1NC(=O)[C@H](CCCCN)NC(=O)[C@H](CC(C)C)NC(=O)[C@H](CC(C)C)NC(=O)[C@H](CS)NC(=O)[C@H](Cc2ccccc2)NC1=O [Cy-f1] (cyclo(CLLKIF)) | 64 (≈ 46 µg/mL) | maintained well-preserved cell morphology | 16 (≈ 11.5 µg/mL) | 64 (≈ 46 µg/mL) | 4 (≈ 2.87 µg/mL) | 128 (≈ 91.9 µg/mL) | 16 (≈ 11.5 µg/mL) | 64 (≈ 46 µg/mL) | 8 (≈ 5.74 µg/mL) | 32 (≈ 23 µg/mL) |  |  |  |  |  |  |  | 
2 | CC[C@H](C)[C@@H]1NC(=O)[C@H](CCCCN)NC(=O)[C@H](CC(C)C)NC(=O)[C@H](CCCNC(=N)N)NC(=O)[C@H](CS)NC(=O)[C@H](Cc2ccccc2)NC1=O [Cy-f2] (cyclo(CRLKIF)) | 16 (≈ 12.2 µg/mL) | maintained well-preserved cell morphology | 8 (≈ 6.09 µg/mL) | 16 (≈ 12.2 µg/mL) | 32 (≈ 24.4 µg/mL) | 16 (≈ 12.2 µg/mL) | 32 (≈ 24.4 µg/mL) | 16 (≈ 12.2 µg/mL) | 8 (≈ 6.09 µg/mL) |  | 2.4 | 5.60 | 3.9 | 4.0 | below 1.0 Lg CFU/mL | surface roughening, cell shrinkage, and partial membrane disruption | surface irregularities, cell wall deformation, and some degree of cell collapse | 
3 | CC(C)C[C@@H]1NC(=O)[C@H](CCCCN)NC(=O)[C@H](CS)NC(=O)[C@H](Cc2ccccc2)NC(=O)[C@H](Cc2c[nH]c3ccccc23)NC(=O)[C@H](CCCNC(=N)N)NC1=O [Cy-f4] (cyclo(CKLRWF)) | 64 (≈ 53.4 µg/mL) | maintained well-preserved cell morphology | 32 (≈ 26.7 µg/mL) |  |  | 128 (≈ 107 µg/mL) | 32 (≈ 26.7 µg/mL) | 32 (≈ 26.7 µg/mL) | 16 (≈ 13.3 µg/mL) | 64 (≈ 53.4 µg/mL) |  |  |  |  |  | extensive membrane rupture, cell deformation, and leakage of intracellular contents | mild surface roughening and slight deformation but retaining overall structural integrity | 
4 | CCN1CCN(C(=O)N[C@@H](C(=O)N[C@@H]2C(=O)N3C(C(=O)O)=C(CSc4nnnn4C)CS[C@H]23)c2ccc(O)cc2)C(=O)C1=O [cefoperazone sodium, reference compound] |  |  |  |  |  |  |  |  |  |  |  |  |  |  |  | surface roughening, cell shrinkage, and partial membrane disruption |  | 
5 | Clc1ccccc1C(c1ccccc1)(c1ccccc1)n1ccnc1 [clotrimazole, reference compound] |  |  |  |  |  |  |  |  |  |  |  |  |  |  |  |  | fragmentation and shrinkage | 
6 | Triton X-100 |  |  |  |  |  |  |  |  |  |  |  |  |  |  |  |  |  | 100
